Experimental data reported in ChEMBL document CHEMBL5058564, “EUbOPEN Chemogenomics Library 2 (Incucyte)” (2022).

Legend:
Format in all cases: toxicity, cell-based
HEK-293T = assay: Incucyte cell viability with HEK293T; conditions: human, 10 µM, compound concentration 10 uM
Fibroblast = assay: Incucyte cell viability with human fibroblast; conditions: 10 µM, compound concentration 10 uM
U2OS = assay: Incucyte cell viability with U2OS; conditions: human, 10 µM, compound concentration 10 uM
[1] = 6 h, replicate number 1, timepoint 6 hours
[2] = 6 h, replicate number 2, timepoint 6 hours
[3] = 12 h, replicate number 1, timepoint 12 hours
[4] = 12 h, replicate number 2, timepoint 12 hours
[5] = 18 h, replicate number 1, timepoint 18 hours
[6] = 18 h, replicate number 2, timepoint 18 hours
[7] = 24 h, replicate number 1, timepoint 24 hours
[8] = 24 h, replicate number 2, timepoint 24 hours
[9] = 0 h, replicate number 2, timepoint 0 hours
[10] = 0 h, replicate number 1, timepoint 0 hours
Also: unitless GR value; below 1 slowed growth and below 0 cell loss.

SMILES	Growth Rate (HEK-293T; [1])	Growth Rate (HEK-293T; [2])	Growth Rate (HEK-293T; [3])	Growth Rate (HEK-293T; [4])	Growth Rate (HEK-293T; [5])	Growth Rate (HEK-293T; [6])	Growth Rate (HEK-293T; [7])	Growth Rate (Fibroblast; [9])	Growth Rate (Fibroblast; [2])	Growth Rate (Fibroblast; [3])	Growth Rate (Fibroblast; [4])	Growth Rate (Fibroblast; [5])	Growth Rate (U2OS; [10])	Growth Rate (U2OS; [9])	Growth Rate (U2OS; [3])	Growth Rate (U2OS; [5])	Growth Rate (Fibroblast; [10])	Growth Rate (U2OS; [6])	Growth Rate (U2OS; [8])	Growth Rate (U2OS; [4])	other results
CC(C)n1cc(-c2ccc(N3CCN(C)CC3)c(NC(=O)c3ccc(-c4ccncc4)o3)c2)cn1	-0.29	-0.21	-0.21	-0.04	-0.16	0.34	0.11	0.57	0.39	0.05	0.57	-0.06	0.32	-1	0.36	0.95	–	–	–	–	Growth Rate (HEK-293T; [8]): 0.64; Growth Rate (Fibroblast; [1]): -0.14; Growth Rate (Fibroblast; [6]): 0.81; Growth Rate (Fibroblast; [7]): 0.03; Growth Rate (Fibroblast; [8]): 0.94; Growth Rate (U2OS; [1]): -0.04
COCCn1c(C)c(C)s/c1=N\C(=O)C1C(C)(C)C1(C)C	–	0.77	–	0.76	–	–	–	0.2	–	–	–	–	0.47	-1	–	1	0.65	0.93	0.97	–	Growth Rate (HEK-293T; [10]): 0.71; Growth Rate (U2OS; [7]): 0.98
COc1ccccc1N1CCN(CCCCNC(=O)c2ccc3ccccc3c2)CC1.Cl	0.59	0.65	–	0.83	0.54	–	0.56	-0.14	0.14	0.23	-0.06	–	0.06	–	0.58	0.77	0.79	0.97	0.92	0.96	Growth Rate (HEK-293T; [9]): 0.97; Growth Rate (HEK-293T; [8]): 0.66; Growth Rate (Fibroblast; [1]): -0.59; Growth Rate (Fibroblast; [6]): 0.09; Growth Rate (Fibroblast; [7]): -0.24; Growth Rate (U2OS; [1]): 0.51; Growth Rate (U2OS; [2]): 0.78; Growth Rate (U2OS; [7]): 0.81
CCOC(=O)N[C@@H]1CC[C@@H]2[C@@H](C1)C[C@H]1C(=O)O[C@H](C)[C@H]1[C@H]2/C=C/c1ccc(-c2cccc(F)c2)cn1 [VORAPAXAR]	0.72	–	0.42	0.85	0.48	0.87	0.45	–	-0.65	-0.08	-0.18	-0.15	-0.64	–	–	–	–	0.88	0.9	0.96	Growth Rate (HEK-293T; [8]): 0.95; Growth Rate (Fibroblast; [1]): 0.13; Growth Rate (Fibroblast; [6]): -0.11; Growth Rate (Fibroblast; [7]): 0.18; Growth Rate (Fibroblast; [8]): 0.15
CO[C@H]1CC[C@@H](C(=O)c2ccc3nc4c(cc3c2)CCCO4)CC1	0.72	–	0.84	–	0.59	–	0.73	–	0.07	–	0.87	0.79	–	–	0.27	0.36	0.96	0.74	0.78	0.67	Growth Rate (Fibroblast; [7]): 0.48; Growth Rate (U2OS; [1]): -0.12; Growth Rate (U2OS; [2]): 0.55; Growth Rate (U2OS; [7]): 0.74
O=C(O)C(F)(F)F.O=C1NC(=O)/C(=C/c2c[nH]c(=O)c(-c3ccc(N4CCNCC4)nc3)c2)S1	–	0.18	–	0.7	–	0.92	–	–	0.04	–	0.66	–	-0.39	-1	0.51	1	0.44	–	0.94	–	Growth Rate (HEK-293T; [10]): 0.87; Growth Rate (HEK-293T; [9]): 0.65; Growth Rate (Fibroblast; [6]): 0.64; Growth Rate (Fibroblast; [8]): 0.71; Growth Rate (U2OS; [1]): 0.45
O=C1NC(Nc2ccccc2)=N/C1=C\c1ccc2c(c1)OCO2	0.37	0.13	0.75	0.51	0.75	0.58	0.82	0.56	–	0.74	–	–	–	-1	0.12	0.39	–	0.59	0.63	0.66	Growth Rate (HEK-293T; [10]): 0.84; Growth Rate (HEK-293T; [9]): 0.94; Growth Rate (HEK-293T; [8]): 0.78; Growth Rate (Fibroblast; [1]): 0.26; Growth Rate (U2OS; [1]): -0.77; Growth Rate (U2OS; [2]): 0.8; Growth Rate (U2OS; [7]): 0.59
CC(C)C[C@H](CO)Nc1nc(S[C@@H](C)c2ccccc2)nc2nc(N)sc12 [AZD-8797]	–	–	0.77	0.99	0.82	–	0.93	–	–	0.47	–	0.83	–	-1	0.93	–	0.26	0.7	0.79	0.82	Growth Rate (Fibroblast; [1]): 0.37; Growth Rate (Fibroblast; [7]): 0.54
O=C(O)c1cc2ccccc2c(Cc2c(O)c(C(=O)O)cc3ccccc23)c1O [PAMOIC ACID]	–	–	–	–	–	–	–	0.41	–	0.52	–	0.93	–	–	–	–	-0.13	–	–	–	Growth Rate (HEK-293T; [10]): 0.69; Growth Rate (HEK-293T; [9]): 0.89; Growth Rate (U2OS; [2]): 0.75
CC(C)c1noc(N2CCC(COc3ccc(-c4ccc(S(C)(=O)=O)cc4)nc3)CC2)n1 [GSK-1292263]	-0.15	-0.07	0.09	0.17	0.14	0.41	0.22	0.61	-0.06	–	0.41	0.53	-0.92	-0.96	–	0.91	-0.57	0.85	–	0.96	Growth Rate (HEK-293T; [8]): 0.55; Growth Rate (Fibroblast; [6]): 0.76
